Data: PubChem BioAssay AID1963436 (Molecular Pharmacology Branch, DTP, NCI, 2024)

Test system: OVCAR-5 complex spheroid (HUVEC/MSC), viability % T/C
Experiment: Anticancer human tumor OVCAR-5 cell line growth inhibition [Asc];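 further: spheroids exposed to agents for 7 days before readout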;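 on viability, T/C: 100% = DMSO vehicle-treated wells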
Settings: for IC50: curve of first compound; for viability, T/C: stronger effect = lower value
How it was run: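 Stromal components (HUVEC and hMSC) are co-assembled with the cancer cells into multicellular spheroids. Drugs are then added singly or paired, at concentrations falling by half-log increments from a clinically achievable maximum, capped at 10 microM without known Cmax.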

[1] = second compound 0.01 µM, first compound 0.0316 µM
[2] = second compound 0.01 µM, first compound 0.1 µM
[3] = second compound 0.01 µM, first compound 0.316 µM
[4] = second compound 0.01 µM, first compound 1 µM
[5] = second compound 0.01 µM, first compound 3.16 µM
[6] = second compound 0.01 µM, first compound 10 µM
[7] = second compound 0.0316 µM, first compound 0.0316 µM
[8] = second compound 0.0316 µM, first compound 0.1 µM
[9] = second compound 0.0316 µM, first compound 0.316 µM
[10] = second compound 0.0316 µM, first compound 1 µM
[11] = second compound 0.0316 µM, first compound 3.16 µM
[12] = second compound 0.0316 µM, first compound 10 µM
[13] = second compound 0.1 µM, first compound 0.0316 µM
[14] = second compound 0.1 µM, first compound 0.1 µM
[15] = second compound 0.1 µM, first compound 0.316 µM
[16] = second compound 0.1 µM, first compound 1 µM
[17] = second compound 0.1 µM, first compound 3.16 µM
[18] = second compound 0.1 µM, first compound 10 µM
[19] = second compound 0.316 µM, first compound 0.0316 µM
[20] = second compound 0.316 µM, first compound 0.1 µM
[21] = second compound 0.316 µM, first compound 0.316 µM
[22] = second compound 0.316 µM, first compound 1 µM
[23] = second compound 0.316 µM, first compound 3.16 µM
[24] = second compound 0.316 µM, first compound 10 µM
[25] = second compound 1 µM, first compound 0.0316 µM
[26] = second compound 1 µM, first compound 0.1 µM
[27] = second compound 1 µM, first compound 0.316 µM
[28] = second compound 1 µM, first compound 1 µM
[29] = second compound 1 µM, first compound 3.16 µM
[30] = second compound 1 µM, first compound 10 µM

In the case of `C#Cc1c(F)ccc2cc(O)cc(-c3ncc4c(N5CC6CCC(C5)N6)nc(OCC56CCCN5CC(F)C6)nc4c3F)c12` (stereo not given) + CNC(C)C(=O)NC1CN(S(=O)(=O)c2cccc(S(=O)(=O)N3CCC4CCC(C(=O)NC(c5ccccc5)c5ccccc5)N4C(=O)C(NC(=O)C(C)NC)C3)c2)CCC2CCC(C(=O)NC(c3ccccc3)c3ccccc3)N2C1=O, the IC50 (second compound 0.01 µM) is reported as 6.86 µM, the IC50 (second compound 0.0316 µM) is reported as 6.23 µM and the IC50 (second compound 0.1 µM) is reported as 5.08 µM. The IC50 (second compound 0.316 µM) was 4.98 µM, the IC50 (second compound 1 µM) was 5.11 µM and the viability, T/C [1] was 97%. It also gave a viability, T/C [2] of 99.1%, a viability, T/C [3] of 95.8% and a viability, T/C [4] of 84.2%. For the same molecule, the viability, T/C [5] was 70.8%, the viability, T/C [6] was 40.2% and the viability, T/C [7] was 90.2%. The viability, T/C [8] was 88.1%, the viability, T/C [9] was 91.8% and the viability, T/C [10] was 68.5%. The viability, T/C [11] was 66.5%, the viability, T/C [12] was 40.3% and the viability, T/C [13] was 84.9%. It also gave a viability, T/C [14] of 89.5%, a viability, T/C [15] of 76.2% and a viability, T/C [16] of 64.8%. It also gave a viability, T/C [17] of 63.6%, a viability, T/C [18] of 37% and a viability, T/C [19] of 84.5%. The viability, T/C [20] was 84.2%, the viability, T/C [21] was 75.3% and the viability, T/C [22] was 65.9%. For the same molecule, the viability, T/C [23] was 61.2%, the viability, T/C [24] was 37.8% and the viability, T/C [25] was 93.3%. It also gave a viability, T/C [26] of 95.2%, a viability, T/C [27] of 76.1% and a viability, T/C [28] of 71%. For the same molecule, the viability, T/C [29] was 65% and the viability, T/C [30] was 35.2%.
Molecule `C=C(F)C(=O)N1CCN(c2nc(OCC3CCCN3C)nc3c2CCN(c2cccc4cccc(Cl)c24)C3)CC1CC#N` (stereo not given) + CNC(C)C(=O)NC1CN(S(=O)(=O)c2cccc(S(=O)(=O)N3CCC4CCC(C(=O)NC(c5ccccc5)c5ccccc5)N4C(=O)C(NC(=O)C(C)NC)C3)c2)CCC2CCC(C(=O)NC(c3ccccc3)c3ccccc3)N2C1=O has an IC50 (second compound 0.01 µM) of 1.32 µM, an IC50 (second compound 0.0316 µM) of 1.15 µM and an IC50 (second compound 0.1 µM) of 0.968 µM. For the same molecule, the IC50 (second compound 0.316 µM) was 0.844 µM, the IC50 (second compound 1 µM) was 0.74 µM and the viability, T/C [1] was 105%. The viability, T/C [2] was 93.5%, the viability, T/C [3] was 82.5% and the viability, T/C [4] was 66.2%. For the same molecule, the viability, T/C [5] was 11.3%, the viability, T/C [6] was 0.22% and the viability, T/C [7] was 94.4%. For the same molecule, the viability, T/C [8] was 78.9%, the viability, T/C [9] was 79% and the viability, T/C [10] was 56.7%. The viability, T/C [11] was 11.6%, the viability, T/C [12] was 0.16% and the viability, T/C [13] was 92%. It also gave a viability, T/C [14] of 84%, a viability, T/C [15] of 76.9% and a viability, T/C [16] of 51.2%. It also gave a viability, T/C [17] of 10.4%, a viability, T/C [18] of 0.18% and a viability, T/C [19] of 90.5%. It also gave a viability, T/C [20] of 79.2%, a viability, T/C [21] of 70.4% and a viability, T/C [22] of 50.3%. It also gave a viability, T/C [23] of 9.19%, a viability, T/C [24] of 0.16% and a viability, T/C [25] of 90.3%. It also gave a viability, T/C [26] of 89.5%, a viability, T/C [27] of 67% and a viability, T/C [28] of 46.5%. For the same molecule, the viability, T/C [29] was 10.2% and the viability, T/C [30] was 0.23%.
